The experiment has as its target Mutant B-Raf (V600E) enzyme (MT B-Raf) (Homo sapiens, UniProt P15056, V600E). The experiment is described as follows: biochemical.
The mark [1] stands for this setting: B-Raf Alpha screen comparable to the described assay, phosphorylation of biotinylated HIS-MEK-AVI, results may be an average of two or more results.

IC50 data for 46 molecules are collected here from patent US20100216791A1, “PYRIDINYLQUINAZOLINAMINE DERIVATIVES AND THEIR USE AS B-RAF INHIBITORS” (ASTRAZENECA, priority 2006, published 2010).

SMILES strings stand for the structures. Where two headings read alike, the source gives them in different places.

Chain of Mutant B-Raf (V600E) enzyme (MT B-Raf) (P15056 whole entry V600E): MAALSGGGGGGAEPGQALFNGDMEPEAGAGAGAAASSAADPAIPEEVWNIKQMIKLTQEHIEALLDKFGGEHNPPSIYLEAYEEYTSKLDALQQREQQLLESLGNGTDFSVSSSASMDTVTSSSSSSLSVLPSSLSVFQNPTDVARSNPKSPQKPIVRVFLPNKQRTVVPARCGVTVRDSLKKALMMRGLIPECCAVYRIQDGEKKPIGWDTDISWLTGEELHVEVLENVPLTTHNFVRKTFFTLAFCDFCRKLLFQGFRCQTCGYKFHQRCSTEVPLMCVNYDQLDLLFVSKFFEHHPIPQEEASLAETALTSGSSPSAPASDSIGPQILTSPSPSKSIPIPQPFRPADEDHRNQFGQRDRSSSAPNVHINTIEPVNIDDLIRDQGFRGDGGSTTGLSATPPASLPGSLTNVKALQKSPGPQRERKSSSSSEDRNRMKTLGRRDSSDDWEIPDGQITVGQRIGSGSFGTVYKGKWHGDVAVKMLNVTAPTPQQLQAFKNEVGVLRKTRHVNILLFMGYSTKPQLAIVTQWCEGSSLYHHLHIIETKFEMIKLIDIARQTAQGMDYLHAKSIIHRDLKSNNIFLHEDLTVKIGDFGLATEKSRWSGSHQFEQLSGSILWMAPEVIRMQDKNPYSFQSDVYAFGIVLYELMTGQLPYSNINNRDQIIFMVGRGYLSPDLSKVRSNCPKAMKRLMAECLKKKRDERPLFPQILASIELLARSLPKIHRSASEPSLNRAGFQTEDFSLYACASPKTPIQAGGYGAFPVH

Under setting [1], `COc1cc(Nc2ncc3cc(-c4ccncc4)ccc3n2)ccc1C` [Example 87, N-(3-Methoxy-4-methylphenyl)-6-pyridin-4-ylquinazolin-2-amine] came in with an IC50 of 2200 nM. In turn, `CC(NCC1CC1)c1ccc(Nc2ncc3cc(-c4ccncc4)ccc3n2)cc1` (stereo not shown) [Example 136, N-(4-{1-[(Cyclopropylmethyl)amino]ethyl}phenyl)-6-pyridin-4-ylquinazolin-2-amine] showed an IC50 under setting [1] of 37 nM. Under setting [1], `COCCNC(=O)c1cccc(Nc2ncc3cc(-c4ccncc4)ccc3n2)n1` [Example 38, N-(2-Methoxyethyl)-6-[(6-pyridin-4-ylquinazolin-2-yl)amino]pyridine-2-carboxamide] gave an IC50 of 1500 nM. On the same count and under the same terms, as for `COCCNC(=O)c1ccc(Nc2ncc3cc(-c4ccncc4)ccc3n2)cc1Cl` [Example 10, 2-Chloro-N-(2-methoxyethyl)-4-[(6-pyridin-4-ylquinazolin-2-yl)amino]benzamide], the figure is 350 nM. `OCCc1ccc(Nc2ncc3cc(-c4ccncc4)ccc3n2)cc1` [Example 52, 2-{4-[(6-Pyridin-4-ylquinazolin-2-yl)amino]phenyl}ethanol]: the IC50 under setting [1] came out at 120 nM. The same measure, in the same setting: as for `COC(=O)c1ccc(Nc2ncc3cc(-c4ccncc4)ccc3n2)cc1` [Example 9, Methyl 4-[(6-pyridin-4-ylquinazolin-2-yl)amino]benzoate], the figure is 230 nM; as for `CC(c1ccc(Nc2ncc3cc(-c4ccncc4)ccc3n2)cc1)N(C)CCO` (stereo not shown) [Example 134], 35 nM.

The molecule `CNC(=O)c1ccc(Nc2ncc3cc(-c4ccncc4)ccc3n2)cc1` [Example 17, N-Methyl-4-[(6-pyridin-4-ylquinazolin-2-yl)amino]benzamide] gave an IC50 under setting [1] of 79 nM. For `COCC(C)NC(=O)c1ccc(Nc2ncc3cc(-c4ccncc4)ccc3n2)cc1` (stereo not shown) [Example 32, N-(2-Methoxy-1-methylethyl)-4-[(6-pyridin-4-ylquinazolin-2-yl)amino]benzamide], the IC50 under setting [1] came out at 130 nM. On to `CCN(CCO)Cc1ccc(Nc2ncc3cc(-c4ccncc4)ccc3n2)cc1` [Example 77, 2-(Ethyl{4-[(6-pyridin-4-ylquinazolin-2-yl)amino]benzyl}amino)ethanol], for which, under setting [1], the half-maximal inhibitory concentration (IC50) is 99 nM.

`O=C(NCC(O)CO)c1ccc(Nc2ncc3cc(-c4ccncc4)ccc3n2)cc1` (stereo not shown) [Example 61, N-(2,3-Dihydroxypropyl)-4-[(6-pyridin-4-ylquinazolin-2-yl)amino]benzamide]: under setting [1], the IC50 was 100 nM. In the case of `O=C(NCC1CCCO1)c1ccc(Nc2ncc3cc(-c4ccncc4)ccc3n2)cc1` (stereo not shown) [Example 14, 4-[(6-Pyridin-4-ylquinazolin-2-yl)amino]-N-(tetrahydrofuran-2-ylmethyl)benzamide], inhibition under setting [1] was half-maximal at 210 nM (IC50). Still for that read-out and setting: as for `CCOc1ccc(Nc2ncc3cc(-c4ccncc4)ccc3n2)cc1` [Example 97, N-(4-Ethoxyphenyl)-6-pyridin-4-ylquinazolin-2-amine], the figure is 450 nM; as for `O=C(NCC1CCNCC1)c1ccc(Nc2ncc3cc(-c4ccncc4)ccc3n2)cc1` [Example 64, N-(Piperidin-4-ylmethyl)-4-[(6-pyridin-4-ylquinazolin-2-yl)amino]benzamide], 22 nM; as for `O=S(=O)(c1ccc(Nc2ncc3cc(-c4ccncc4)ccc3n2)cc1)N1CCCC1` [Example 96, 6-Pyridin-4-yl-N-[4-(pyrrolidin-1-ylsulfonyl)phenyl]quinazolin-2-amine], 740 nM. On the same count and under the same terms, the value for `O=S(=O)(c1cccc(Nc2ncc3cc(-c4ccncc4)ccc3n2)c1)N1CCCC1` [Example 93, 6-Pyridin-4-yl-N-[3-(pyrrolidin-1-ylsulfonyl)phenyl]quinazolin-2-amine] was 3000 nM; that for `CC(c1ccc(Nc2ncc3cc(-c4ccncc4)ccc3n2)cc1)N(C)C` (single isomer, unassigned) [Example 139] was 36 nM; that for `CS(=O)(=O)c1ccc(Nc2ncc3cc(-c4ccncc4)ccc3n2)cc1` [Example 103, N-[4-(Methylsulfonyl)phenyl]-6-pyridin-4-ylquinazolin-2-amine] was 62 nM. Take `CN(C)c1ccc(Nc2ncc3cc(-c4ccncc4)ccc3n2)cc1` [Example 107, N,N-Dimethyl-N′-(6-pyridin-4-ylquinazolin-2-yl)benzene-1,4-diamine]: the 50% inhibitory concentration (IC50) under setting [1] was found to be 1900 nM. Same read-out and setting: the value for `O=S(=O)(c1cccc(Nc2ncc3cc(-c4ccncc4)ccc3n2)c1)N1CCCCC1` [Example 100, N-[3-(Piperidin-1-ylsulfonyl)phenyl]-6-pyridin-4-ylquinazolin-2-amine] was 1000 nM. On the same count and under the same terms, the value for `CC(O)CCNC(=O)c1ccc(Nc2ncc3cc(-c4ccncc4)ccc3n2)cc1` (stereo not shown) [Example 34, N-(3-Hydroxybutyl)-4-[(6-pyridin-4-ylquinazolin-2-yl)amino]benzamide] was 270 nM; that for `O=C(NCC1CCCN1)c1ccc(Nc2ncc3cc(-c4ccncc4)ccc3n2)cc1` (stereo not shown) [Example 60, 4-[(6-Pyridin-4-ylquinazolin-2-yl)amino]-N-pyrrolidin-2-ylmethylbenzamide] was 150 nM; that for `O=S(=O)(c1ccc(Nc2ncc3cc(-c4ccncc4)ccc3n2)cc1)N1CCOCC1` [Example 94, N-[4-(Morpholin-4-ylsulfonyl)phenyl]-6-pyridin-4-ylquinazolin-2-amine] was 300 nM. `COc1ccc(Nc2ncc3cc(-c4ccncc4)ccc3n2)cc1` [Example 41, N-(4-Methoxyphenyl)-6-pyridin-4-ylquinazolin-2-amine]: the IC50 under setting [1] amounted to 460 nM. On the same count and under the same terms, the value for `CC1(C)OCC(CNC(=O)c2ccc(Nc3ncc4cc(-c5ccncc5)ccc4n3)cc2)O1` (stereo not shown) [Example 16, N-[(2,2-Dimethyl-1,3-dioxolan-4-yl)methyl]-4-[(6-pyridin-4-ylquinazolin-2-yl)amino]benzamide] was 200 nM; that for `CNCCNC(=O)c1cccc(Nc2ncc3cc(-c4ccncc4)ccc3n2)n1` [Example 65, N-[2-(Methylamino)ethyl]-6-[(6-pyridin-4-ylquinazolin-2-yl)amino]pyridine-2-carboxamide] was 1000 nM; that for `CC(O)CCNC(C)c1ccc(Nc2ncc3cc(-c4ccncc4)ccc3n2)cc1` (stereo not shown) [Example 56, 4-[(1-{4-[(6-Pyridin-4-ylquinazolin-2-yl)amino]phenyl}ethyl)amino]butan-2-ol] was 26 nM. Still for that read-out and setting: the value for `c1cnn(-c2ccc(Nc3ncc4cc(-c5ccncc5)ccc4n3)cc2)c1` [Example 108, N-[4-(1H-Pyrazol-1-yl)phenyl]-6-pyridin-4-ylquinazolin-2-amine] was 250 nM. As to `CN1CCN(C(=O)c2ccc(Nc3ncc4cc(-c5ccncc5)ccc4n3)cc2)CC1` [Example 120], half-maximal inhibition under setting [1] (IC50) was put at 56 nM. As for `CN(C)C1CCN(C(=O)c2ccc(Nc3ncc4cc(-c5ccncc5)ccc4n3)cc2)C1` (stereo not shown) [Example 117], the IC50 under setting [1] turned out to be 73 nM. Still for that read-out and setting: the value for `COCCNC(=O)c1ccc(Nc2ncc3cc(-c4ccncc4)ccc3n2)nc1` [Example 18, N-(2-Methoxyethyl)-6-[(6-pyridin-4-ylquinazolin-2-yl)amino]nicotinamide] was 1300 nM. Same read-out and setting: as for `CN(C)CCCNC(=O)c1ccc(Nc2ncc3cc(-c4ccncc4)ccc3n2)cc1` [Example 31, N-[3-(Dimethylamino)propyl]-4-[(6-pyridin-4-ylquinazolin-2-yl)amino]benzamide], the figure is 82 nM; as for `CCCNC(C)c1ccc(Nc2ncc3cc(-c4ccncc4)ccc3n2)cc1` (stereo not shown) [Example 138], 47 nM. In turn, `CCCNC(C)c1ccc(Nc2ncc3cc(-c4ccncc4)ccc3n2)cc1` (single isomer, unassigned) [Example 141] gave a half-inhibitory concentration (IC50) under setting [1] of 34 nM. On to `CS(=O)(=O)c1cccc(Nc2ncc3cc(-c4ccncc4)ccc3n2)c1` [Example 104, N-[3-(Methylsulfonyl)phenyl]-6-pyridin-4-ylquinazolin-2-amine], for which the IC50 under setting [1] amounted to 160 nM. For the molecule `CN(C)C(=O)c1ccc(Nc2ncc3cc(-c4ccncc4)ccc3n2)cc1` [Example 30, N,N-Dimethyl-4-[(6-pyridin-4-ylquinazolin-2-yl)amino]benzamide], the IC50 under setting [1] was determined as 83 nM. Still for that read-out and setting: the value for `O=C(NCCCN1CCOCC1)c1ccc(Nc2ncc3cc(-c4ccncc4)ccc3n2)cc1` [Example 22, N-(3-Morpholin-4-ylpropyl)-4-[(6-pyridin-4-ylquinazolin-2-yl)amino]benzamide] was 91 nM; that for `Cc1cc(Nc2ncc3cc(-c4ccncc4)ccc3n2)ccc1C(=O)NCCN1CCCCC1` [Example 51, 2-Methyl-N-(2-(piperidin-1-yl)ethyl)-4-(6-(pyridin-4-yl)quinazolin-2-ylamino)benzamide] was 130 nM; that for `CC(NCCO)c1ccc(Nc2ncc3cc(-c4ccncc4)ccc3n2)cc1` (stereo not shown) [Example 57, 2-[(1-{4-[(6-Pyridin-4-ylquinazolin-2-yl)amino]phenyl}ethyl)amino]ethanol] was 29 nM. `Cc1cc(Nc2ncc3cc(-c4ccncc4)ccc3n2)ccc1C(=O)N(C)C` [Example 50] displayed an IC50 of 150 nM. Take `COCCNC(=O)c1ccc(Nc2ncc3cc(-c4ccnc(OC)c4)ccc3n2)cc1` [Example 115]: the half-maximal inhibitory concentration (IC50) under setting [1] turned out to be 520 nM.

In turn, `CC(C)NCCNC(=O)c1ccc(Nc2ncc3cc(-c4ccncc4)ccc3n2)cc1` [Example 28, N-[2-(Isopropylamino)ethyl]-4-[(6-pyridin-4-ylquinazolin-2-yl)amino]benzamide] yielded a half-inhibitory concentration (IC50) under setting [1] of 140 nM. As to `COc1cc(Nc2ncc3cc(-c4ccncc4)ccc3n2)cc(C(F)(F)F)c1` [Example 101, N-[3-Methoxy-5-(trifluoromethyl)phenyl]-6-pyridin-4-ylquinazolin-2-amine], under setting [1], the IC50 was determined as 1700 nM. The same measure, in the same setting: as for `O=C(NCCN1CCOCC1)c1ccc(Nc2ncc3cc(-c4ccncc4)ccc3n2)cc1` [Example 5, N-(2-Morpholin-4-ylethyl)-4-[(6-pyridin-4-ylquinazolin-2-yl)amino]benzamide], the figure is 180 nM. The same measure, in the same setting: as for `Cc1ccc(Nc2ncc3cc(-c4ccncc4)ccc3n2)cc1` [Example 106, N-(4-Methylphenyl)-6-pyridin-4-ylquinazolin-2-amine], the figure is 23000 nM. Take `COCCCNC(C)c1ccc(Nc2ncc3cc(-c4ccncc4)ccc3n2)cc1` (stereo not shown) [Example 55, N-(4-{1-[(3-Methoxypropyl)amino]ethyl}phenyl)-6-pyridin-4-ylquinazolin-2-amine]: the IC50 under setting [1] was found to be 22 nM.

One may read the IC50 as the concentration that gives 50% inhibition. A higher IC50 goes with lower potency.
